Earlier results as cited in US20170172145A1, “COMPOSITIONS COMPRISING AN AMIDE” (The Procter & Gamble Company, priority 2015, published 2017).

| Structure (SMILES) | pKa |
| --- | --- |
| CCCCCCC(=O)O [heptanoic acid] | 5.1 |
| OCl [hypochlorous acid] | 7.0 |
| O=C(O)/C=C/c1ccc(O)cc1 [p-coumaric acid] | 4.6 |
| CCCCCCCCC(=O)O [nonanoic acid] | 5.2 |
